Legend:
[1] = biological target: T1, Activin receptor type-1B (Homo sapiens) (UniProt P36896); assay: Inhibition of ACVR1B (unknown origin) assessed as residual activity at 100 nM by KINOMEscan analysis relative to control
T1 sequence (whole entry): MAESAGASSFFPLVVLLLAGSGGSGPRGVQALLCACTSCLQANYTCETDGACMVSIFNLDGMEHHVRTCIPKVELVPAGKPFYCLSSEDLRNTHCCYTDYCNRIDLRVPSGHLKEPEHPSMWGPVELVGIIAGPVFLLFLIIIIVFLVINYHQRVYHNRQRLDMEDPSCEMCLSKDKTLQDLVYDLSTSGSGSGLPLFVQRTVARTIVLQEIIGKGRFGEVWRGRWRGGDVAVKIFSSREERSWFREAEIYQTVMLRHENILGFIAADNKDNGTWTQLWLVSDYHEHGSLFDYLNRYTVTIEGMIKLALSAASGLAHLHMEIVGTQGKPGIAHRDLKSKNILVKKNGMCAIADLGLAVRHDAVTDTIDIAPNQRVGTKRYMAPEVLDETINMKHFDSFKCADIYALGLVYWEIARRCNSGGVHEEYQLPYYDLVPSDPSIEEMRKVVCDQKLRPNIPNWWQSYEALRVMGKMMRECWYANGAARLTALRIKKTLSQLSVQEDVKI

[2] = biological target: T2, Serine/threonine-protein kinase DCLK1 (Homo sapiens) (UniProt O15075); assay: Inhibition of DCAMKL1 (unknown origin) assessed as residual activity at 100 nM by KINOMEscan analysis relative to control
T2 sequence (whole entry): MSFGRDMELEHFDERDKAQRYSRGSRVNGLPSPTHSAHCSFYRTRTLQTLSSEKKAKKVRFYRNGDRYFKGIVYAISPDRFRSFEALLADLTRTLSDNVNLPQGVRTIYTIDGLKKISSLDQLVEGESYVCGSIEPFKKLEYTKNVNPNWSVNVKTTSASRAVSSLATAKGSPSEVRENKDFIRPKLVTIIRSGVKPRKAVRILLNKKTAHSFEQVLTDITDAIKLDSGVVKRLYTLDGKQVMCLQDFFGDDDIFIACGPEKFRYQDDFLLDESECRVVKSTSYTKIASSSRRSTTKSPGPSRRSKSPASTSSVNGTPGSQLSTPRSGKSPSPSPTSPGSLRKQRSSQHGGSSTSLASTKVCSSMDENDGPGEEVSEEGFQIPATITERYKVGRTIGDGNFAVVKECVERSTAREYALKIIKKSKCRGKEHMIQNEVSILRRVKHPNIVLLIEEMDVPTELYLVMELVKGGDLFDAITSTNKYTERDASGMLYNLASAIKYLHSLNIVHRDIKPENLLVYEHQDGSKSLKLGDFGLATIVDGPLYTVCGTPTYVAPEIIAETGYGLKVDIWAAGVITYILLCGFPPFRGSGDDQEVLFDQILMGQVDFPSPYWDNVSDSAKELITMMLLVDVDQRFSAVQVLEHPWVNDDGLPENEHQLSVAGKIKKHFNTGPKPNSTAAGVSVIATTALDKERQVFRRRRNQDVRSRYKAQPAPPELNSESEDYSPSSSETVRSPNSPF

[3] = biological target: Calcium/calmodulin-dependent protein kinase type II subunit beta (Homo sapiens) (UniProt Q13554); assay: Inhibition of CAMK2B (unknown origin) assessed as residual activity at 100 nM by KINOMEscan analysis relative to control
[4] = biological target: Vascular endothelial growth factor receptor 3 (Homo sapiens) (UniProt P35916); assay: Inhibition of FLT4 (unknown origin) assessed as residual activity at 100 nM by KINOMEscan analysis relative to control
[5] = biological target: Serine/threonine-protein kinase N2 (Homo sapiens) (UniProt Q16513); assay: Inhibition of PKN2 (unknown origin) assessed as residual activity at 100 nM by KINOMEscan analysis relative to control
[6] = system: Phosphatidylinositol 4,5-bisphosphate 3-kinase catalytic subunit alpha isoform (Homo sapiens), P42336 [E545K]; assay: Inhibition of PIK3CA E545K mutant (unknown origin) assessed as residual activity at 100 nM by KINOMEscan analysis relative to control
[7] = biological target: Serine/threonine-protein kinase PLK3 (Homo sapiens) (UniProt Q9H4B4); assay: Inhibition of PLK3 (unknown origin) assessed as residual activity at 100 nM by KINOMEscan analysis relative to control
Serine/threonine-protein kinase PLK3 (Homo sapiens), sequence (Q9H4B4 whole entry, looked up): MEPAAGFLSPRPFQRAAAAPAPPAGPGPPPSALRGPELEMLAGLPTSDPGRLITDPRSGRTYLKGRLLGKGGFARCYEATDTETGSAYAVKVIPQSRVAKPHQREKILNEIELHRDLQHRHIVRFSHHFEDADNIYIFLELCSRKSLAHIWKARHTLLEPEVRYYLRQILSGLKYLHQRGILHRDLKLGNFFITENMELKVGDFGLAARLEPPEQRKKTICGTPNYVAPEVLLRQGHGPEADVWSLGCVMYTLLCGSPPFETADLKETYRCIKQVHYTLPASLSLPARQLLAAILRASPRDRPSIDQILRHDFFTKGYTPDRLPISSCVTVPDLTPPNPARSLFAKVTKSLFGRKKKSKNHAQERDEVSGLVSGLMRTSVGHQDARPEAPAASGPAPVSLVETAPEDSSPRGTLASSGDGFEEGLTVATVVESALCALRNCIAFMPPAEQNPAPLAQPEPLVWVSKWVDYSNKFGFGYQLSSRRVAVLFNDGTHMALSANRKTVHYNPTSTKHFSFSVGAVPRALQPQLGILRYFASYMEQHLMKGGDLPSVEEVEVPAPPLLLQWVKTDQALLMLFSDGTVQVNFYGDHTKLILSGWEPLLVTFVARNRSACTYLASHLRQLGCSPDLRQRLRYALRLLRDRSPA

Serine/threonine-protein kinase N2 (Homo sapiens), sequence (Q16513 whole entry, looked up, canonical isoform): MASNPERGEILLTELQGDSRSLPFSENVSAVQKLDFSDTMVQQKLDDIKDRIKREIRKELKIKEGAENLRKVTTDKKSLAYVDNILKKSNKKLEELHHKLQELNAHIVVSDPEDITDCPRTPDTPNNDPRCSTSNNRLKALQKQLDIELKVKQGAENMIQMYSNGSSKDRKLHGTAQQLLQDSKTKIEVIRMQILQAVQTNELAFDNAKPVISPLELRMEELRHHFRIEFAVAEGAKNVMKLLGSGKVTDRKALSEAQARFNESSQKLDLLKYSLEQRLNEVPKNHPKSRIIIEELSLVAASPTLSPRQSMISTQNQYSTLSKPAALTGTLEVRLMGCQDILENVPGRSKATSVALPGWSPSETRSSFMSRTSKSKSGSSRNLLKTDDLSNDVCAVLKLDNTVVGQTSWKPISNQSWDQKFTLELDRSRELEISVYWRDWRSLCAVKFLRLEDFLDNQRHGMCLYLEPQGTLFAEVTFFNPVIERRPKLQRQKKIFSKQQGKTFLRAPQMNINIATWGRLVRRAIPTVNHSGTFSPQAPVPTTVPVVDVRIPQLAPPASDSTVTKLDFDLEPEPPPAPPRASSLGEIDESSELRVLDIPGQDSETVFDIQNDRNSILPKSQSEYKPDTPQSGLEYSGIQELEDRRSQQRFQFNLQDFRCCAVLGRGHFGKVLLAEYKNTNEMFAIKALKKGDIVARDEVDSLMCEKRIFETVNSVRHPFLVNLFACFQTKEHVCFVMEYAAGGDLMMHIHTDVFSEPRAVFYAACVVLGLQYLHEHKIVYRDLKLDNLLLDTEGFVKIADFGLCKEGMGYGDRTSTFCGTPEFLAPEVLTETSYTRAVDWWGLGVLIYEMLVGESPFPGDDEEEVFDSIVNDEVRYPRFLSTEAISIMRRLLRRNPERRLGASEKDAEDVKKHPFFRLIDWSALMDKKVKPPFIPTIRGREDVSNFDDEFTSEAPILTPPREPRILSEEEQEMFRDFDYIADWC
Calcium/calmodulin-dependent protein kinase type II subunit beta (Homo sapiens), sequence (Q13554 whole entry): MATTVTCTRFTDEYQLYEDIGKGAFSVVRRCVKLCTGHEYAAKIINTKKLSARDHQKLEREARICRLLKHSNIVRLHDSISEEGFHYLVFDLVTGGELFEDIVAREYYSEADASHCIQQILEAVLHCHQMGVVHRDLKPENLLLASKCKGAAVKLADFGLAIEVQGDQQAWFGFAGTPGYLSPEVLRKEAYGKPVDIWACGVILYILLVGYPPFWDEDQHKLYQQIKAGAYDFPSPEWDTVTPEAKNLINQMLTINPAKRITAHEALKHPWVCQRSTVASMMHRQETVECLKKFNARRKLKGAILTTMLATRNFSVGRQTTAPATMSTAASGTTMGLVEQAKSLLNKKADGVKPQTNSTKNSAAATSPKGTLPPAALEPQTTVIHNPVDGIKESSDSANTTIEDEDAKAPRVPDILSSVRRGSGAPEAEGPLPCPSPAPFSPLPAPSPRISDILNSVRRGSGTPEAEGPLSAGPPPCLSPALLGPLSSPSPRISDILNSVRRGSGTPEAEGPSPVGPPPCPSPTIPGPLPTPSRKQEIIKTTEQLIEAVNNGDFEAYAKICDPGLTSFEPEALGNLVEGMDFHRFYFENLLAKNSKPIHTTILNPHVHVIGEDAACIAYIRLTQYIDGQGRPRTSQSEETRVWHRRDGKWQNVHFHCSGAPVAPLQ
Vascular endothelial growth factor receptor 3 (Homo sapiens), sequence (P35916 whole entry): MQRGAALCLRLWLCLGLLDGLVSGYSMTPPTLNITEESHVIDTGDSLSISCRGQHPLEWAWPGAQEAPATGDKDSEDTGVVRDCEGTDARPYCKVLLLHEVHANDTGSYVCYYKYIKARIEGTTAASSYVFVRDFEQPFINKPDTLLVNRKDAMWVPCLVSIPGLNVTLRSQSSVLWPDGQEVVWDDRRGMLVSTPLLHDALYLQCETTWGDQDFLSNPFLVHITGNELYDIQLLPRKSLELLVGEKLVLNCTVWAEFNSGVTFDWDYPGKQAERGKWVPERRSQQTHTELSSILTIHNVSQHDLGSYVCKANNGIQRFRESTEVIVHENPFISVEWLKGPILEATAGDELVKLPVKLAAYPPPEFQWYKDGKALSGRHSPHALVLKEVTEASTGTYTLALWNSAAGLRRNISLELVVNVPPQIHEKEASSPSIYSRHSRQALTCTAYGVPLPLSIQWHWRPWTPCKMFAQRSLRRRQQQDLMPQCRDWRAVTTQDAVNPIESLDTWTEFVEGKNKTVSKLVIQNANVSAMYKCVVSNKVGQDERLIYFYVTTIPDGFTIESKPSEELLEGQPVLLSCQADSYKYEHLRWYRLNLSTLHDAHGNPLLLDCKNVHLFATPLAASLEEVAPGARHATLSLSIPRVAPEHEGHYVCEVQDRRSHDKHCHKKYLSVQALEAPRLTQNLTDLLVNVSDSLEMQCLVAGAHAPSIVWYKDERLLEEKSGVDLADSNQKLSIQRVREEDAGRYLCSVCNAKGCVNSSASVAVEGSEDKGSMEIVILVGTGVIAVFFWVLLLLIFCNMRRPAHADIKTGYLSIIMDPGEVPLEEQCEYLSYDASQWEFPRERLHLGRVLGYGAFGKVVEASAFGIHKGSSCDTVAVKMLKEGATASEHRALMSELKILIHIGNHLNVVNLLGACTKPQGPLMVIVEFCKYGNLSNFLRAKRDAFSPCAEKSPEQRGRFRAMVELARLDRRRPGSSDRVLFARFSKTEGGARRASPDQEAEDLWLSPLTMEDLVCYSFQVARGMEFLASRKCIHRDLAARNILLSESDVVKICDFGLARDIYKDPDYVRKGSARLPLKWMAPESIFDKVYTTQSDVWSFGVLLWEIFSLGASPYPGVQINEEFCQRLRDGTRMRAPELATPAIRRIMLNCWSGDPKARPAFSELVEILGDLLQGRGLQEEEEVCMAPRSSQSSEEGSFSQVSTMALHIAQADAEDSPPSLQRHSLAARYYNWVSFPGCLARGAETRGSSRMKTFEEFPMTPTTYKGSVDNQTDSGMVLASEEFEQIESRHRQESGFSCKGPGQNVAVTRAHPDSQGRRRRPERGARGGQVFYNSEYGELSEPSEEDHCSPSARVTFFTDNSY
Phosphatidylinositol 4,5-bisphosphate 3-kinase catalytic subunit alpha isoform (Homo sapiens), P42336 [E545K], sequence (P42336 whole entry E545K, canonical isoform): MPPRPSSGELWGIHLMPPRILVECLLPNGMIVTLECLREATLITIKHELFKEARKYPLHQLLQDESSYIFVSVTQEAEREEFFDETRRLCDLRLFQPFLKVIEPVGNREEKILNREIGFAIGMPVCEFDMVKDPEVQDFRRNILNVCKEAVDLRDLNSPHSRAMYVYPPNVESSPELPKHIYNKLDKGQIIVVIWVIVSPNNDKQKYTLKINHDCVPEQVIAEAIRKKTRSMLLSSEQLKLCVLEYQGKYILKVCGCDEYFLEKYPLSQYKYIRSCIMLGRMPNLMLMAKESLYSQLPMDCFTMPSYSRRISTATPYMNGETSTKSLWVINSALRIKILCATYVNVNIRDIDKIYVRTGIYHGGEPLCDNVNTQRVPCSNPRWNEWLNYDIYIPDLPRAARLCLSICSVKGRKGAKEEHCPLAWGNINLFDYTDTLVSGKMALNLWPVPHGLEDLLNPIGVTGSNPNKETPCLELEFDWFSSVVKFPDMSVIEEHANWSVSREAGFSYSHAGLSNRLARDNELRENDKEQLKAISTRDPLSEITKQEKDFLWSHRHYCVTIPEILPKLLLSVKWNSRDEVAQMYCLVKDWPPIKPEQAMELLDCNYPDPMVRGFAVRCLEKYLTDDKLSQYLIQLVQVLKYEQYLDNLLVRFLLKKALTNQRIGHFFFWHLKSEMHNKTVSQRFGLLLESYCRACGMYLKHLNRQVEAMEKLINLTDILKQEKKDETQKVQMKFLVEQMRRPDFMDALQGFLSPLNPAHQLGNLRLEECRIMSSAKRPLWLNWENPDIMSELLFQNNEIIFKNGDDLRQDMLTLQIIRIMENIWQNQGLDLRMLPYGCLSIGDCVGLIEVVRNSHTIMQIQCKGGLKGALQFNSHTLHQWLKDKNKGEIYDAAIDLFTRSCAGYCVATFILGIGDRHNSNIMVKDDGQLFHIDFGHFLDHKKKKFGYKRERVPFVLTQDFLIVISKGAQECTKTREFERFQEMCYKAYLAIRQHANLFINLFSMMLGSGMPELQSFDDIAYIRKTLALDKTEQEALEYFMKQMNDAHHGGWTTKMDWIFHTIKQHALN

Structure (SMILES): COc1cc2ncnc(N[C@H](C)c3cccc4ccccc34)c2cc1OC
- Activity [1]: 89%
- Activity [2]: 86%
- Activity [3]: 100%
- Activity [4]: 92%
- Activity [5]: 88%
- Activity [6]: 75%
- Activity [7]: 83%

Source: ChEMBL document CHEMBL5678818, “Discovery of potent SOS1 inhibitors that block RAS activation via disruption of the RAS-SOS1 interaction” (Proc Natl Acad Sci U S A, 2019)
